Molecules are shown by their SMILES.

A word on the inhibition: it is the share of the control response that was lost under treatment.

For the first experiment, the target named is T1, CYP4A (Homo sapiens, UniProt Q02928).
T1 construct: purchased; host or cells: bacterial membranes ('bactosome')
T1 sequence (Q02928 5-519): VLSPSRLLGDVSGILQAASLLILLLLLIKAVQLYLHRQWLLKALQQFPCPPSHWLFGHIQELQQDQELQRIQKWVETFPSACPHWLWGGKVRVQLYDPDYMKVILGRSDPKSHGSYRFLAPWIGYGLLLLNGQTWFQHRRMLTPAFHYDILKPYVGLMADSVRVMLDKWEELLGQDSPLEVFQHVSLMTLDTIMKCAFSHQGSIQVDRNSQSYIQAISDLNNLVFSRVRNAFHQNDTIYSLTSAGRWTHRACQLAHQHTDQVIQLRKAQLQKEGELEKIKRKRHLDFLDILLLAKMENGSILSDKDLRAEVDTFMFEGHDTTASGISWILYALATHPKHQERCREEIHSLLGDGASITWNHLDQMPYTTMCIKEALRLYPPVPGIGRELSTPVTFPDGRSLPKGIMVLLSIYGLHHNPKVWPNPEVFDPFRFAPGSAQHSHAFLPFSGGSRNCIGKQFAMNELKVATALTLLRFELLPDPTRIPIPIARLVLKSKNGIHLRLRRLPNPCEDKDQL
The experiment in a line: CYP4A enzyme assay (luminescence, Luciferin-ME). Particulars: Compound concentration 5 μM; 50%-70%; read-out: % Inhibition 50%-70%. It is filed as biochemical. In outline: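 Compounds (5 μM) were preincubated 15 min at room temperature with CYP4A bactosomes in 100 mM KPO4, 0.1% BSA, 1 mM DTT. Reaction ran 30 min at room temperature after adding 5 mM Luciferin-ME and NADPH regeneration system. Luminescence after 15 min with detection reagent; inhibition judged by comparing well signals.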
For `O=C(c1ccc(F)cc1)N1CCCC(C(=O)N2CCN(c3cc(C(F)(F)F)nc4ccccc34)CC2)C1` (centres unmarked) [Example 96, (1-(4-fluorobenzoyl)piperidin-3-yl)(4-(2-(trifluoromethyl)quinolin-4-yl)piperazin-1-yl)methanone], the inhibition at 5 µM lay within 50 to 70%.

As for `O=C(c1ccncc1)N1CCCC(C(=O)N2CCN(c3cc(C(F)(F)F)nc4ccccc34)CC2)C1` (centres unmarked) [Example 98, (1-isonicotinoylpiperidin-3-yl)(4-(2-(trifluoromethyl)quinolin-4-yl)piperazin-1-yl)methanone], the inhibition at 5 µM was in the range of 50 to 70%.

For `COc1ccc(C(=O)N2CCCC(C(=O)N3CCN(c4cc(C(F)(F)F)nc5ccccc45)CC3)C2)cc1` (centres unmarked) [Example 99, (1-(4-methoxybenzoyl)piperidin-3-yl)(4-(2-(trifluoromethyl)quinolin-4-yl)piperazin-1-yl)methanone], the inhibition at 5 µM lay in the range of 50 to 70%.

On to `CC(=O)Nc1ccc(C(=O)N2CCCC(C(=O)N3CCN(c4cc(C)nc5ccccc45)CC3)C2)cc1` (centres unmarked) [Example 100, N-(4-(3-(1-(2-methylquinolin-4-yl)piperazine-4-carbonyl)piperidine-1-carbonyl)phenyl)acetamide], for which the inhibition at 5 µM was in the range of 50 to 70%.

For `Cc1cc(N2CCN(C(=O)C3CCCN(C(=O)c4ccc(F)cc4)C3)CC2)c2ccccc2n1` (centres unmarked) [Example 101, (1-(4-fluorobenzoyl)piperidin-3-yl)(4-(2-methylquinolin-4-yl)piperazin-1-yl)methanone], the inhibition at 5 µM was in the range of 50 to 70%.

Consider `Cc1cc(N2CCN(C(=O)C3CCCN(C(=O)c4ccccc4)C3)CC2)c2ccccc2n1` (centres unmarked) [Example 102, (1-benzoylpiperidin-3-yl)(4-(2-methylquinolin-4-yl)piperazin-1-yl)methanone], for which the inhibition at 5 µM is 50 to 70%.

Take `Cc1cc(N2CCN(C(=O)C3CCCN(C(=O)c4ccncc4)C3)CC2)c2ccccc2n1` (centres unmarked) [Example 104, (1-isonicotinoylpiperidin-3-yl)(4-(2-methylquinolin-4-yl)piperazin-1-yl)methanone]: the inhibition at 5 µM fell in the range of 50 to 70%.

Take `O=C(C1CCCN(C(=O)C2CCCCC2)C1)N1CCN(c2ccnc3cc(F)ccc23)CC1` (centres unmarked) [Example 108, (1-(cyclohexylcarbonyl)piperidin-3-yl)(4-(7-fluoroquinolin-4-yl)piperazin-1-yl)methanone]: the inhibition at 5 µM lay within 50 to 70%.

As for `O=C(c1ccccc1)N1CCCC(C(=O)N2CCN(c3ccnc4ccccc34)CC2)C1` (centres unmarked) [Example 113, (1-benzoylpiperidin-3-yl)(4-(quinolin-4-yl)piperazin-1-yl)methanone], the inhibition at 5 µM lay within 50 to 70%.

As to `O=C(C1CCCN(S(=O)(=O)C2CC2)C1)N1CCN(c2ccnc3cc(F)ccc23)CC1` (centres unmarked) [Example 119, (1-(cyclopropylsulfonyl)piperidin-3-yl)(4-(7-fluoroquinolin-4-yl)piperazin-1-yl)methanone], the inhibition at 5 µM fell in the range of 50 to 70%.

In the case of `O=C(C1CCCN(S(=O)(=O)C2CC2)C1)N1CCN(c2ccnc3ccccc23)CC1` (centres unmarked) [Example 122, (1-(cyclopropylsulfonyl)piperidin-3-yl)(4-(quinolin-4-yl)piperazin-1-yl)methanone], the inhibition at 5 µM is 50 to 70%.

As for `O=C(C1CCCN(S(=O)(=O)c2ccco2)C1)N1CCN(c2ccnc3cc(Cl)ccc23)CC1` (centres unmarked) [Example 123, (4-(7-chloroquinolin-4-yl)piperazin-1-yl)(1-(furan-2-ylsulfonyl)piperidin-3-yl)methanone], the inhibition at 5 µM lay within 50 to 70%.

`Cc1cc(N2CCN(C(=O)C3CCCN(S(=O)(=O)c4cccnc4)C3)CC2)c2ccccc2n1` (centres unmarked) [Example 125, (4-(2-methylquinolin-4-yl)piperazin-1-yl)(1-(pyridin-3-ylsulfonyl)piperidin-3-yl)methanone]: the inhibition at 5 µM fell in the range of 50 to 70%.

For the molecule `Cc1cc(N2CCN(C(=O)C3CCCN(S(=O)(=O)c4ccncc4)C3)CC2)c2ccccc2n1` (centres unmarked) [Example 126, (4-(2-methylquinolin-4-yl)piperazin-1-yl)(1-(pyridin-4-ylsulfonyl)piperidin-3-yl)methanone], the inhibition at 5 µM lay within 50 to 70%.

Still in this experiment, the particulars now being: Compound concentration 5 μM; 70%-90%; read-out: % Inhibition 70%-90%.
As to `CC(=O)Nc1ccc(C(=O)N2CCCC(C(=O)N3CCN(c4ccnc5cc(F)ccc45)CC3)C2)cc1` (centres unmarked) [Example 105, N-(4-(3-(4-(7-fluoroquinolin-4-yl)piperazine-1-carbonyl)piperidine-1-carbonyl)phenyl)acetamide], the inhibition at 5 µM lay in the range of 70 to 90%.

For `O=C(c1ccc(F)cc1)N1CCCC(C(=O)N2CCN(c3ccnc4cc(F)ccc34)CC2)C1` (centres unmarked) [Example 106, (1-(4-fluorobenzoyl)piperidin-3-yl)(4-(7-fluoroquinolin-4-yl)piperazin-1-yl)methanone], the inhibition at 5 µM is 70 to 90%.

For `O=C(c1ccccc1)N1CCCC(C(=O)N2CCN(c3ccnc4cc(F)ccc34)CC2)C1` (centres unmarked) [Example 107, (1-benzoylpiperidin-3-yl)(4-(7-fluoroquinolin-4-yl)piperazin-1-yl)methanone], the inhibition at 5 µM was in the range of 70 to 90%.

As for `O=C(c1ccncc1)N1CCCC(C(=O)N2CCN(c3ccnc4cc(F)ccc34)CC2)C1` (centres unmarked) [Example 109, (4-(7-fluoroquinolin-4-yl)piperazin-1-yl)(1-isonicotinoylpiperidin-3-yl)methanone], the inhibition at 5 µM was 70 to 90%.

For `COc1ccc(C(=O)N2CCCC(C(=O)N3CCN(c4ccnc5cc(F)ccc45)CC3)C2)cc1` (centres unmarked) [Example 110, (4-(7-fluoroquinolin-4-yl)piperazin-1-yl)(1-(4-methoxybenzoyl)piperidin-3-yl)methanone], the inhibition at 5 µM was 70 to 90%.

For the molecule `CC(=O)Nc1ccc(C(=O)N2CCCC(C(=O)N3CCN(c4ccnc5ccccc45)CC3)C2)cc1` (centres unmarked) [Example 111, N-(4-(3-(1-(quinolin-4-yl)piperazine-4-carbonyl)piperidine-1-carbonyl)phenyl)acetamide], the inhibition at 5 µM is 70 to 90%.

Consider `O=C(c1ccc(F)cc1)N1CCCC(C(=O)N2CCN(c3ccnc4ccccc34)CC2)C1` (centres unmarked) [Example 112, (1-(4-fluorophenylcarbonyl)piperidin-3-yl)(4-(quinolin-4-yl)piperazin-1-yl)methanone], for which the inhibition at 5 µM is 70 to 90%.

Regarding `O=C(c1ccncc1)N1CCCC(C(=O)N2CCN(c3ccnc4ccccc34)CC2)C1` (centres unmarked) [Example 115, (1-isonicotinoylpiperidin-3-yl)(4-(quinolin-4-yl)piperazin-1-yl)methanone], the inhibition at 5 µM fell in the range of 70 to 90%.

Turning to `COc1ccc(C(=O)N2CCCC(C(=O)N3CCN(c4ccnc5ccccc45)CC3)C2)cc1` (centres unmarked) [Example 116, (1-(4-methoxyphenylcarbonyl)piperidin-3-yl)(4-(quinolin-4-yl)piperazin-1-yl)methanone], the inhibition at 5 µM was in the range of 70 to 90%.

As to `O=C(C1CCCN(S(=O)(=O)C2CCCCC2)C1)N1CCN(c2ccnc3cc(F)ccc23)CC1` (centres unmarked) [Example 117, (1-(cyclohexylsulfonyl)piperidin-3-yl)(4-(7-fluoroquinolin-4-yl)piperazin-1-yl)methanone], the inhibition at 5 µM lay within 70 to 90%.

For `O=C(C1CCCN(S(=O)(=O)C2CCCCC2)C1)N1CCN(c2ccnc3ccccc23)CC1` (centres unmarked) [Example 121, (1-(cyclohexylsulfonyl)piperidin-3-yl)(4-(quinolin-4-yl)piperazin-1-yl)methanone], the inhibition at 5 µM fell in the range of 70 to 90%.

For the molecule `O=C(C1CCCN(S(=O)(=O)c2ccncc2)C1)N1CCN(c2ccnc3cc(Cl)ccc23)CC1` (centres unmarked) [Example 124, (4-(7-chloroquinolin-4-yl)piperazin-1-yl)(1-(pyridin-4-ylsulfonyl)piperidin-3-yl)methanone], the inhibition at 5 µM is 70 to 90%.

The experiment is the same for the next values; noted with them: Compound concentration 5 μM; Greater than 90%; read-out: % Inhibition Greater than 90%.
As for `CC(=O)Nc1ccc(C(=O)N2CCCC(C(=O)N3CCN(c4ccnc5ccccc45)CC3)C2)cc1` (centres unmarked) [Example 111, N-(4-(3-(1-(quinolin-4-yl)piperazine-4-carbonyl)piperidine-1-carbonyl)phenyl)acetamide], the inhibition at 5 µM is more than 90%.

For `Cn1ccnc1S(=O)(=O)N1CCCC(C(=O)N2CCN(c3ccnc4cc(F)ccc34)CC2)C1` (centres unmarked) [Example 118, (4-(7-fluoroquinolin-4-yl)piperazin-1-yl)(1-(1-methyl-1H-imidazol-2-ylsulfonyl)piperidin-3-yl)methanone], the inhibition at 5 µM was more than 90%.

On to `Cn1ccnc1S(=O)(=O)N1CCCC(C(=O)N2CCN(c3ccnc4ccccc34)CC2)C1` (centres unmarked) [Example 120, (1-(1-methyl-1H-imidazol-2-ylsulfonyl)piperidin-3-yl)(4-(quinolin-4-yl)piperazin-1-yl)methanone], for which the inhibition at 5 µM is more than 90%.

Staying with this experiment, now noted: Compound concentration 5 μM; Less than 50%; read-out: % Inhibition Less than 50%.
Take `O=C(C1CCCN(C(=O)C2CCCCC2)C1)N1CCN(c2cc(C(F)(F)F)nc3ccccc23)CC1` (centres unmarked) [Example 97, (1-(cyclohexylcarbonyl)piperidin-3-yl)(4-(2-(trifluoromethyl)quinolin-4-yl)piperazin-1-yl)methanone]: the inhibition at 5 µM is less than 50%.

With `Cc1cc(N2CCN(C(=O)C3CCCN(C(=O)C4CCCCC4)C3)CC2)c2ccccc2n1` (centres unmarked) [Example 103, (1-(cyclohexylcarbonyl)piperidin-3-yl)(4-(2-methylquinolin-4-yl)piperazin-1-yl)methanone], the inhibition at 5 µM is less than 50%.

Consider `O=C(C1CCCN(C(=O)C2CCCCC2)C1)N1CCN(c2ccnc3ccccc23)CC1` (centres unmarked) [Example 114, (1-(cyclohexylcarbonyl)piperidin-3-yl)(4-(quinolin-4-yl)piperazin-1-yl)methanone], for which the inhibition at 5 µM was less than 50%.

(Values after patent US12612384B2, “Heterocyclic CYP4A inhibitor compounds and compositions thereof” (MBD CO., LTD., priority 2021, dated 2026).)
